Results taken from patent publication US20090215742A1, “AMIDE […]” (PFIZER, INC., priority 2005, published 2009).

Biological target: T1, HSP-90 (Homo sapiens, UniProt P07900)
T1 construct: fused on or other part: 6-His tag at the C-terminus
Test: HSP-90 SPA (scintillation proximity assay) competition binding assay, displacement of tritiated propyl-Geldanamycin
Conditions: for inhibition at 1 µM: read-out: % inhibition @ 1 μM; for inhibition at 10 µM: read-out: % inhibition @ 10 μM
Method: Compounds of the present invention were evaluated for potency against HSP-90 using a SPA (scintillation proximity assay) competition binding assay. Briefly, either full length or N-terminal HSP-90 that contains a 6-His tag on its C-terminus binds to copper on Yttrium-silicate scintillant beads via the His-tag. Tritiated propyl-Geldanamycin (pGA), whose structure is shown below, is an analog of a natural inhibitor of HSP-90 called Geldanamycin.
Tritiated pGA, which contains a tritiated propyl-amine group added at the #17 position, binds HSP-90 and brings the isotope into proximity with the beads. […] The beta signal emitted from the isotope excites the scintillant, which creates a measurable signal. As competitive compounds are added to the assay mixture, they compete with bound tritiated pGA at the ATP-binding site on the N-terminal of HSP-90. When a compound displaces the labeled pGA, the signal is reduced (the beta-particles are no longer in proximity with the bead). This reduction in signal is used to quantify the extent to which the inhibitor/compound is competitive with pGA.
Typical reaction solutions contained 30 nM HSP-90 and 200 nM ^3H-pGA in binding buffer (100 mM Hepes, pH 7.5 and 150 mM KCl). […] Inhibitors were added to the HSP-90/^3H-pGA solutions at eleven different concentrations for Ki determinations. […] To determine percent inhibition, the compound was tested at 1 and 10 μM. The final DMSO in the samples was 4%. Copper-Ysi beads (Amersham, #RPNQ0096) that have been diluted in binding buffer were added to each well to give a final concentration of 100 μg/well. The plates were sealed, covered with a foil-covered lid and shaken for 30 minutes at room temperature. The beads were allowed to settle for 30 minutes after which the plates were counted using a Packard TopCount NXT instrument. This procedure has also been adapted for medium throughput using a Beckman Biomek FX. Samples were run in duplicate and on two separate days to assure an accurate value of Ki.
For Ki determinations, the corrected cpm's (actual cpm's minus background) were plotted vs. inhibitor concentration using GraphPad Prism software. […] The IC50 was then used to calculate the Ki by using the Cheng-Prusoff equation: […]
This is normally true when the observed IC50 is […] the HSP-90 concentration. For a tight binding inhibitor, the following equation can be applied: […]
EL and ELo are the radioligand-HSP-90 complexes in the presence and absence of inhibitor, respectively. EL/ELo represents the fractional signal in the presence of inhibitor. Io, Eo, and Lo are the inhibitor, HSP-90, and radioligand concentrations, respectively.

With `Cc1ccc(OC2CCN(C(=O)c3ccc(O)cc3O)CC2)cc1` [Example 74, 4-{[4-(4-methylphenoxy)piperidin-1-yl]carbonyl}benzene-1,3-diol] the inhibition at 1 µM was 47.7% and the inhibition at 10 µM was 80.7%.
`COc1ccc(F)c(C2=NOC3(COCCN(C(=O)c4ccc(O)cc4O)C3)C2)c1` (stereo not shown) [Example 132, 4-{[3-(2-fluoro-5-methoxyphenyl)-1,7-dioxa-2,10-diazaspiro[4.6]undec-2-en-10-yl]carbonyl}benzene-1,3-diol] gave an inhibition at 1 µM of 33.3% and an inhibition at 10 µM of 73.9%.
`C[C@@H](c1ccccc1)N(C)C(=O)c1ccc(O)cc1O` [Example 66, 2,4-dihydroxy-N-methyl-N-(1-phenylethyl)benzamide] gave an inhibition at 1 µM of 55.5% and an inhibition at 10 µM of 84.8%.
`COc1ccccc1OC1CCN(C(=O)c2ccc(O)cc2O)CC1` [Example 72, 4-{[4-(2-methoxyphenoxy)piperidin-1-yl]carbonyl}benzene-1,3-diol] gave an inhibition at 1 µM of 13.2% and an inhibition at 10 µM of 62.4%.
`O=C(c1ccc(O)cc1O)N1CC=CCC1` [Example 97, 4-(3,6-dihydropyridin-1(2H)-ylcarbonyl)benzene-1,3-diol] was tested, and the inhibition at 1 µM was 62.7% and the inhibition at 10 µM was 82.6%.
For `Cc1nccc(-c2ccc(O)c(C(=O)N3Cc4ccccc4C3)c2)n1` [Example 35, 2-(1,3-dihydro-2H-isoindol-2-ylcarbonyl)-4-(2-methylpyrimidin-4-yl)phenol], the inhibition at 1 µM was 6.1% and the inhibition at 10 µM was 32.8%.
Compound `O=C(c1ccc(O)cc1O)N1CCOC(COc2ccc(F)cc2Cl)C1` (stereo not shown) [Example 115, 4-({2-[(2-chloro-4-fluorophenoxy)methyl]morpholin-4-yl}carbonyl)benzene-1,3-diol] has an inhibition at 1 µM of 60.3% and an inhibition at 10 µM of 83.7%.
`O=C(c1ccc(O)cc1O)N1CCCCC1c1nccs1` (stereo not shown) [Example 62, 4-{[2-(1,3-thiazol-2-yl)piperidin-1-yl]carbonyl}benzene 1,3-diol] was tested, and the inhibition at 1 µM was 12% and the inhibition at 10 µM was 64.4%.
Work on `COC(=O)C1CCN(C(=O)c2ccc(O)cc2O)C1` (stereo not shown) [Example 94, methyl 1-(2,4-dihydroxybenzoyl)pyrrolidine-3-carboxylate] yielded an inhibition at 1 µM of 21.1% and an inhibition at 10 µM of 62.1%.
`COc1ccccc1-c1nnc([C@H]2CCCN2C(=O)c2ccc(O)cc2O)o1` [Example 92, 4-({2-[5-(2-methoxyphenyl)-1,3,4-oxadiazol-2-yl]pyrrolidin-1-yl}carbonyl)benzene-1,3-diol] gave an inhibition at 1 µM of 9% and an inhibition at 10 µM of 22.4%.
Compound `O=C(c1ccc(O)cc1O)N1CCC(c2ccc(F)cc2)CC1` [Example 70, 4-{[4-(4-fluorophenyl)piperidin-1-yl]carbonyl}benzene-1,3-diol] has an inhibition at 1 µM of 40.2% and an inhibition at 10 µM of 79.1%.
`C[C@H](c1ccccc1)N(C)C(=O)c1ccc(O)cc1O` [Example 67, 2,4-dihydroxy-N-methyl-N-(1-phenylethyl)benzamide] showed an inhibition at 1 µM of -0.8% and an inhibition at 10 µM of 35.4%.
Work on `O=C(c1ccc(O)cc1O)N1CCC2(CC1)CC(OCc1ccccc1F)CO2` (stereo not shown) [Example 51, 4-({3-[(2-fluorobenzyl)oxy]-1-oxa-8-azaspiro[4.5]dec-8-yl}carbonyl)benzene-1,3-diol] yielded an inhibition at 1 µM of 22.1% and an inhibition at 10 µM of 70.9%.
`O=C(c1cc(-c2ccc(F)cc2F)ccc1O)N1Cc2ccccc2C1` [Example 28, 3-(1,3-dihydro-2H-isoindol-2-ylcarbonyl)-2′,4′-difluorobiphenyl-4-ol] showed an inhibition at 1 µM of 50.8% and an inhibition at 10 µM of 76.2%.
`O=C(c1ccc(O)cc1O)N1CCN(c2nc3ccc(Cl)cc3o2)CC1` [Example 125, 4-{[4-(6-chloro-1,3-benzoxazol-2-yl)piperazin-1-yl]carbonyl}benzene-1,3-diol] was tested, and the inhibition at 1 µM was 22.4% and the inhibition at 10 µM was 59.8%.
Compound `O=C(c1ccc(O)cc1O)N1CCC(CCc2ccccc2)CC1` [Example 49, 4-{[4-(2-phenylethyl)piperidin-1-yl]carbonyl}benzene-1,3-diol] has an inhibition at 1 µM of 61.2% and an inhibition at 10 µM of 86.3%.
`C[C@H](c1cccc2ccccc12)N(C)C(=O)c1ccc(O)cc1O` [Example 81, 2,4-dihydroxy-N-methyl-N-[1-(1-naphthyl)ethyl]benzamide] gave an inhibition at 1 µM of 29% and an inhibition at 10 µM of 73.8%.
Compound `O=C(c1ccc(O)cc1O)N1CCC2(CC1)OCc1ccccc12` [Example 80, 4-(1′H,3H-spiro[2-benzofuran-1,4′-piperidin]-1′-ylcarbonyl)benzene-1,3-diol] has an inhibition at 1 µM of 42% and an inhibition at 10 µM of 81.3%.
With `Cc1ccc2c(c1)C=CC1(CCN(C(=O)c3ccc(O)cc3O)CC1)O2` [Example 82, 4-[(6-methyl-1′H-spiro[chromene-2,4′-piperidin]-1′-yl)carbonyl]benzene-1,3-diol] the inhibition at 1 µM was 62.8% and the inhibition at 10 µM was 85.3%.
In the case of `CN(Cc1ccc(F)cc1)C(=O)c1ccc(O)cc1O` [Example 105, N-(4-fluorobenzyl)-2,4-dihydroxy-N-methylbenzamide], the inhibition at 1 µM was 30.2% and the inhibition at 10 µM was 69.3%.
In the case of `COc1ccc(Cc2nnc3n2CCN(C(=O)c2ccc(O)cc2O)CC3)cc1` [Example 116, 4-{[3-(4-methoxybenzyl)-5,6,8,9-tetrahydro-7H-[1,2,4]triazolo[4,3-d][1,4]diazepin-7-yl]carbonyl}benzene-1,3-diol], the inhibition at 1 µM was 5% and the inhibition at 10 µM was 62.1%.
Work on `O=C(c1ccc(O)cc1O)N1CCCCC1` [Example 63, 4-(piperidin-1-ylcarbonyl)benzene-1,3-diol] yielded an inhibition at 1 µM of 32.2% and an inhibition at 10 µM of 72%.
With `Cc1nc2c(s1)CN(C(=O)c1ccc(O)cc1O)CC2` [Example 104, 4-[(2-methyl-6,7-dihydro[1,3]thiazolo[5,4-c]pyridin-5(4H)-yl)carbonyl]benzene-1,3-diol] the inhibition at 1 µM was 33.9% and the inhibition at 10 µM was 74.3%.
Work on `O=C(c1ccc(O)cc1O)N1CCC(CCc2ncccn2)CC1` [Example 46, 4-{[4-(2-pyrimidin-2-ylethyl)piperidin-1-yl]carbonyl}benzene-1,3-diol] yielded an inhibition at 1 µM of 44.9% and an inhibition at 10 µM of 77.1%.
For `O=C(c1ccc(O)cc1O)N1CCSC1` [Example 117, 4-(1,3-thiazolidin-3-ylcarbonyl)benzene-1,3-diol], the inhibition at 1 µM was 65% and the inhibition at 10 µM was 89.2%.
`CCOc1cc2c(cc1OCC)CN(C(=O)c1ccc(O)cc1O)CC2` [Example 56, 4-[(6,7-diethoxy-3,4-dihydroisoquinolin-2(1H)-yl)carbonyl]benzene-1,3-diol] showed an inhibition at 1 µM of 27% and an inhibition at 10 µM of 73%.
In the case of `O=C(c1ccc(O)cc1O)N1CCOCC(COCc2c(Cl)cccc2Cl)C1` (stereo not shown) [Example 122, 4-[(6-{[(2,6-dichlorobenzyl)oxy]methyl}-1,4-oxazepan-4-yl)carbonyl]benzene-1,3-diol], the inhibition at 1 µM was 48.2% and the inhibition at 10 µM was 79%.
Compound `O=C(c1ccc(O)cc1O)N1CCCCC1CCC1CCCC1` (stereo not shown) [Example 44, 4-{[2-(2-cyclopentylethyl)piperidin-1-yl]carbonyl}benzene-1,3-diol] has an inhibition at 1 µM of 82.4% and an inhibition at 10 µM of 90.5%.
With `O=C(c1ccc(O)cc1O)N1CCOCC2(CC(c3c(F)cccc3F)=NO2)C1` (stereo not shown) [Example 131, 4-{[3-(2,6-difluorophenyl)-1,7-dioxa-2,10-diazaspiro[4.6]undec-2-en-10-yl]carbonyl}benzene-1,3-diol] the inhibition at 1 µM was 24.7% and the inhibition at 10 µM was 69.6%.
In the case of `CN(C(=O)c1ccc(O)cc1O)[C@@H]1CCCC[C@H]1O` [Example 40, 2,4-dihydroxy-N-(2-hydroxycyclohexyl)-N-methylbenzamide], the inhibition at 1 µM was 13.2% and the inhibition at 10 µM was 49.1%.
`COCc1nccc(C2CCCN(C(=O)c3ccc(O)cc3O)C2)n1` (stereo not shown) [Example 64, 4-({3-[2-(methoxymethyl)pyrimidin-4-yl]piperidin-1-yl}carbonyl)benzene-1,3-diol] gave an inhibition at 1 µM of 5.9% and an inhibition at 10 µM of 59.2%.
In the case of `O=C(c1ccc(O)cc1O)N1CCOCC(O)(COC2CCCC2)C1` (stereo not shown) [Example 61, 4-({6-[(cyclopentyloxy)methyl]-6-hydroxy-1,4-oxazepan-4-yl}carbonyl)benzene 1,3-diol], the inhibition at 1 µM was 37.7% and the inhibition at 10 µM was 75.6%.
Work on `O=C1CC2(CCN(C(=O)c3ccc(O)cc3O)CC2)Oc2ccccc21` [Example 85] yielded an inhibition at 1 µM of 52.1% and an inhibition at 10 µM of 79.6%.
Compound `O=C(c1ccc(O)cc1O)N1CCOCC2(CC(c3ccccc3)=NO2)C1` (stereo not shown) [Example 130] has an inhibition at 1 µM of 46.2% and an inhibition at 10 µM of 82.4%.
Compound `O=C(c1ccc(O)cc1O)N1CCN(c2cnccn2)CC(CO)C1` (stereo not shown) [Example 124, 4-{[6-(hydroxymethyl)-4-pyrazin-2-yl-1,4-diazepan-1-yl]carbonyl}benzene-1,3-diol] has an inhibition at 1 µM of -4.8% and an inhibition at 10 µM of 18.1%.
